# According to US6787549B2, “Citrate salt of 5,8,14-triazatetracyclo[10.3.1.02,11.04,9]-hexadeca-2(11),3,5,7,9-pentaene and pharmaceutical compositions thereof” (Pfizer Inc., priority 2001, dated 2004):
# Counter-ions that a name gives are not always drawn.
# Key:
# Format in all cases: physicochemical
# [1] = water loss of Form A on drying (low humidity, elevated temperature)
# Procedure: Under low humidity and elevated temperature, Form A will lose water depending on the macroscopic crystalline form. Unmilled samples of Form A may be dried in a 45° C. vacuum oven for several days without significant water loss (<1% water loss). […] Under conditions of low humidity and heat, Form A will dehydrate completely or nearly so to form a distinct pseudomorph which maintains a crystalline lattice, referred to herein as Form B. Form B contains between 0 and 1% water by weight.
# Form B of the citrate salt of 5,8,14-triazatetracyclo[10.3.1.0^2,11.0^4,9]-hexadeca-2(11),3,5,7,9-pentaene can also be prepared by drying the citrate salt hydrate of 5,8,14-triazatetracyclo[10.3.1.0^2,11.0^4,9]-hexadeca-2(11),3,5,7,9-pentaene. A number of means for drying the water from the crystal lattice may be employed. Form B may be prepared by reducing the particle size of Form A, via any technique known to those of skill in the art, including jet milling, mechanical milling, etc., and drying the reduce particle size citrate salt Form A under conditions sufficient to remove the water in the lattice. […] Vacuum drying at temperatures in the range of 20 to 60° C. will yield Form B in the course of 30 minutes to 10 hours.
# [2] = hygroscopicity on exposure to 90% relative humidity in a moisture chamber
# Text: (§1) Although in general the acid addition salts of 5,8,14-triazatetracyclo[10.3.1.0^2,11.0^4,9]-hexadeca-2(11),3,5,7,9-pentaene are all crystalline, the majority of those salts are so hygroscopic as to render them poor candidates for pharmaceutical formulation use. The citrate salt exists as a hydrate under ambient conditions, where as noted above, hydrate refers to a water content of between 1 and 5% water by weight in the crystal. […] The citrate salt hydrate Form A has been prepared under different conditions: […]
# [3] = native pH in aqueous solution
# [4] = solid state stability (light, elevated temperature, high humidity challenges); settings: in light, elevated temperatures and high humidity challenges
# Text: as §1
# aqueous solubility = assay: aqueous solubility
# [5] = inertness towards common formulation excipients
smiles,measurement,setting,value
"c1cnc2cc3c(cc2n1)C1CNCC3C1 [Form A, Citrate Salt Hydrate of 5,8,14-Triazatetracyclo[10.3.1.0^2,11.0^4,9]-Hexadeca-2(11),3,5,7,9-Pentaene (Form A)]",water loss and regain (in words),"[1]; micronized samples, as humidity and temperature are varied",readily lose and regain water
same,time until water loss is seen,"[1]; particle size reduced, at 45° C.",less than 1 hour
same,water loss,"[1]; unmilled samples, 45° C. vacuum oven for several days",< 1%
same,hygroscopicity (in words),[2],only slightly hygroscopic
same,hygroscopicity,[2]; at 90% relative humidity,approximately 0.6%
same,hygroscopicity,[2]; exposure to 90% relative humidity in a moisture chamber,approximately 0.6 % wt/wt
same,native pH in aqueous solution,[3],3.7
same,solid state stability,[4],excellent solid state stability
same,aqueous solubility (in words),aqueous solubility,high aqueous solubility
same,aqueous solubility,aqueous solubility; listed as citrate hydrate salt,110 mg/mL
same,solubility,aqueous solubility; water,> 100 mg/mL
same,inertness towards common excipients used in pharmaceutical formulation,[5],relative inertness towards common excipients
